From patent US11525106B2, “Tetraacetyldiamine and triacetyldiamine derivatives useful as bleach activators” (DOW GLOBAL TECHNOLOGIES LLC, priority 2018, dated 2022)

Columns and labels:
[1] = bleaching test with food dye and hydrogen peroxide; conditions: FIG. 2; for time after which the blue color was bleached: food dye in Tris buffer pH 8.0 with H2O2 (30%) 1:1, 10 mg compound per mL; for bleaching activation effect: food dye (blue) with H2O2, room temperature
Description: (§1) To study the hydrolytic degradation, 1 and 2 were dissolved in Tris buffer (pH 8.0, 0.1 M):acetonitrile (can) mixture (3:1, v/v) at 50 μg/mL. The perhydrolytic degradation was evaluated at similar conditions in the presence of sodium perborate (10 equiv.). Commercially available bleach activator, tetraacetylethylenediamine (TAED), was used as a control. The mixture was incubated at room temperature (20° C.) for 20 days. At different time intervals, an aliquot of the solution was taken out and analyzed by HPLC. The concentration of 1 and 2 was quantified by UV-vis absorption at Δmax=218 nm through standard curve. For the bleaching test, 1, 2, TAED, and other control molecules (20 mg) were treated with commercially available food dyes (100× dilution, 1 mL) and hydrogen peroxide (H2O2, 30%, 1 mL). The mixtures were incubated at room temperature (20° C.) and checked at different time intervals to monitor the bleaching of the dyes.
The compounds of the invention were subjected to a bleaching test. The food dye was purchased from Adams Extract, and diluted 500 times with Tris buffer (pH 8.0, 0.1 M) before use. The diluted food dye was mixed with H2O2 (30%) in 1:1 ratio (v/v). For every 10 mg of TAED/TA(Me)ED/TriA(Me)ED, 1 mL of food dye/H2O2 mixture was added. The widely used bleach activator TAED actively reacted with H2O2, and the blue color disappeared after about 24 hours.

[2] = perhydrolytic degradation in the presence of sodium perborate (10 equiv.), followed by HPLC; assay type: physicochemical; conditions: sodium perborate/persalts 10 equiv.
Description: as §1

[3] = hydrolytic degradation in buffer, followed by HPLC; assay type: physicochemical; conditions: for kH (hydrolysis rate constant) / half-life at 50 μg/mL: Tris buffer pH 8.0 (0.1 M):acetonitrile 3:1, 50 μg/mL, 20° C.; for half-life at 50 μg/mL: Tris buffer:acetonitrile (3:1, v/v), read-out: t1/2,H (hydrolysis half-life) (converted); for half-life relative to half-life of TAED: pH 8.0; for hydrolytic degradation compared with TAED: pH 8.0, FIG. 1A
Description: as §1

[4] = hydrolytic degradation in buffer, followed by HPLC; assay type: physicochemical; conditions: pH 9.0
[5] = solubility in aqueous environment; assay type: physicochemical; conditions: without organic solvent

SMILES	time after which the blue color was bleached [1]	perhydrolysis rate, comparison among TAED, 1 and 2 [2]	kH (hydrolysis rate constant) [3] [h⁻¹]	half-life at 50 μg/mL [3] [h]	half-life relative to half-life of TAED [3] [times longer]	hydrolytic degradation compared with TAED [3]	hydrolysis compared to TAED ([3]; pH values between about 5 and 9)	half-life relative to half-life of TAED [4] [times longer]	bleaching activation effect [1]	hydrolysis compared to TAED ([3]; basic pH)	solubility in water [5]
CC(=O)N(CC(C)N(C(C)=O)C(C)=O)C(C)=O (stereo not drawn) [Compound 1, N,N′-(propane-1,2-diyl)bis(N-acetylacetamide)]	24 h	comparable	0.0038	181	1.5	slower degradation	slower hydrolysis	2.6	–	–	–
CC(=O)NC(C)CN(C(C)=O)C(C)=O (stereo not drawn) [Compound 2, N-(2-acetamidopropyl)-N-acetylacetamide]	24 h	comparable	0.0015	462	5.7	slower degradation	–	5.8	much slower bleaching action	even slower hydrolysis	–
CC(=O)NCC(C)NC(C)=O (stereo not drawn) [Compound 3, N,N′-(propane-1,2-diyl)diacetamide, reference compound]	–	–	–	–	–	–	–	–	did not exhibit any bleaching activation effect	–	–
CC(=O)NCCNC(C)=O [DAED, diacetylethylenediamine, reference compound]	–	–	–	–	–	–	–	–	did not exhibit any bleaching activation effect	–	–
CC(=O)N(CCN(C(C)=O)C(C)=O)C(C)=O [TAED, tetraacetylethylenediamine, reference compound]	about 24 hours	comparable	0.0091	76	–	–	–	–	–	–	cannot be easily solubilized in water
